In patent US20160257697A1, “THIOPHENE-SUBSTITUTED TETRACYCLIC COMPOUNDS AND METHODS OFUSE THEREOF FOR THE TREATMENT OF VIRAL DISEASES” (priority 2013, published 2016):
Read-outs that look alike come from different tables or passages of the source.

Columns and labels:
Test in all cases: microbe, parasite or virus in culture
Type in all cases: cell-based, Hepatitis C virus (HCV)
Details in all cases: Replicon Assay A
HCV replicon 2B = tested on: HCV replicon 2B
Method in brief: (§1)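 Read-out is replicon RNA per cell by real-time RT-PCR, normalised to cyclophilin mRNA amplified in the same well. Cells were exposed to compound for 3 days at 2000 cells/well in medium with 5% fetal bovine serum and 0.5% DMSO.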

HCV replicon 1A = tested on: HCV replicon 1A
Method in brief: as §1

HCV replicon 1AY93H = tested on: HCV replicon 1AY93H
Method in brief: as §1

[1] = read-out: 1A Y93H IC50, replicon 1AY93H
[2] = read-out: 2B IC50, HCV replicon 2B
[3] = Hepatitis C virus, read-out: 1A Y93H IC50, HCV replicon 1A Y93H
[4] = read-out: 1A Y93H IC50, HCV replicon 1A Y93H
[5] = Hepatitis C virus, HCV replicon 1A

Row | SMILES | IC50 (HCV replicon 2B; read-out: 2B IC50, replicon 2B) [nM] | IC50 (HCV replicon 1A; replicon 1A) [pM] | IC50 (HCV replicon 1AY93H; [1]) [nM] | also measured
1 | COC(=O)N[C@H](C(=O)N1CCC[C@H]1c1ncc(-c2cc(F)c3c(c2)OC(c2csc4ccccc24)n2c-3cc3cc(-c4cnc([C@@H]5CCCN5C(=O)[C@@H](NC(=O)OC)C(C)C)[nH]4)ccc32)[nH]1)C(C)C (single isomer, unassigned) [Compound 324] | 7.99 | 1.4 | 4.89 | 
2 | COC(=O)N[C@H](C(=O)N1CCC[C@H]1c1ncc(-c2cc(F)c3c(c2)OC(c2scc4c2OCCO4)n2c-3cc3cc(-c4cnc([C@@H]5CCCN5C(=O)[C@@H](NC(=O)OC)C(C)C)[nH]4)ccc32)[nH]1)C(C)C (single isomer, unassigned) [Compound 523] |  |  |  | IC50 (HCV replicon 2B; [2]): 12.4 nM; IC50 (HCV replicon 1A; HCV replicon 1A): 3.2 pM; IC50 (HCV replicon 1AY93H; [3]): 11.7 nM
3 | COC(=O)N[C@@H](Cc1ccccc1)C(=O)N1CCC[C@H]1c1ncc(-c2ccc3c(c2)OC(c2ccc(-c4ccc(NC(=O)CCCC[C@@H]5SC[C@@H]6NC(=O)N[C@@H]65)cc4)s2)n2c-3cc3cc(-c4cnc([C@@H]5CCCN5C(=O)[C@H](Cc5ccccc5)NC(=O)OC)[nH]4)ccc32)[nH]1 (single isomer, unassigned) [Compound 383] | 8.74 | 36.7 | 6.34 | 
4 | CCc1ccc(C2Oc3cc(-c4cnc([C@@H]5CCCN5C(=O)C(NC(=O)OC)C5C[C@@H](C)O[C@@H](C)C5)[nH]4)cc(F)c3-c3cc4cc(-c5cnc([C@@H]6CCCN6C(=O)[C@@H](NC(=O)OC)C(C)C)[nH]5)ccc4n32)s1 (single isomer, unassigned) [Compound 157] | 2.8 | 2.1 | 2.32 | 
5 | COC(=O)N[C@H](C(=O)N1CCC[C@H]1c1ncc(-c2ccc3c(c2)OC(c2cc4ccccc4s2)n2c-3cc3cc(-c4cnc([C@@H]5C[C@H]6C[C@H]6N5C(=O)[C@@H](NC(=O)OC)C(C)C)[nH]4)ccc32)[nH]1)C(C)C (single isomer, unassigned) [Compound 610] |  |  |  | IC50 (HCV replicon 2B; [2]): 0.272 nM; IC50 (HCV replicon 1A; HCV replicon 1A): 12.4 pM; IC50 (HCV replicon 1AY93H; [4]): 0.453 nM
6 | COC(=O)N[C@H](C(=O)N1CCC[C@H]1c1ncc(-c2cc(F)c3c(c2)OC(c2cccs2)n2c-3cc3cc(-c4cnc([C@@H]5CCCN5C(=O)[C@@H](NC(=O)OC)C(C)C)[nH]4)ccc32)[nH]1)C(C)C (mixture of isomers) [Compound 500] |  |  |  | IC50 (HCV replicon 2B; Hepatitis C virus, read-out: 2B IC50, HCV replicon 2B): 2.5 nM; IC50 (HCV replicon 1A; [5]): 21.9 pM; IC50 (HCV replicon 1AY93H; [3]): 0.367 nM
7 | COC(=O)N[C@H](C(=O)N1CCC[C@H]1c1ncc(-c2cc(F)c3c(c2)OC(c2ccc(C4(N)CC4)s2)n2c-3cc3cc(-c4cnc([C@@H]5CCCN5C(=O)[C@@H](NC(=O)OC)C(C)C)[nH]4)ccc32)[nH]1)C(C)C (mixture of isomers) [Compound 57] |  |  |  | IC50 (HCV replicon 2B; Hepatitis C virus, read-out: 2B IC50 (nM), replicon 2B): 2.79 nM; IC50 (HCV replicon 1A; Hepatitis C virus, replicon 1A): 11.4 pM; IC50 (HCV replicon 1AY93H; Hepatitis C virus, read-out: 1A Y93H IC50 (nM), replicon 1AY93H): 0.37 nM
8 | CCc1ccc(C2Oc3cc(-c4cnc([C@@H]5CCCN5C(=O)[C@@H](NC(=O)OC)C(C)C)[nH]4)cc(F)c3-c3cc4cc(-c5cnc([C@@H]6CCCN6C(=O)C(NC(=O)OC)C6CCOC(C)(C)C6)[nH]5)ccc4n32)s1 (single isomer, unassigned) [Compound 152] | 0.53 | 1.6 | 0.48 | 
9 | CCc1ccc(C2Oc3cc(-c4cnc([C@@H]5CCCN5C(=O)[C@@H](NC(=O)OC)C(C)C)[nH]4)cc(F)c3-c3cc4cc(-c5cnc([C@@H]6C[C@H]7C[C@H]7N6C(=O)C(NC(=O)OC)C6CCOC(C)(C)C6)[nH]5)ccc4n32)s1 (single isomer, unassigned) [Compound 203] | 0.83 | 1.6 | 0.12 | 
10 | COC(=O)NC(C(=O)N1CCC[C@H]1c1ncc(-c2ccc3c(c2)cc2n3C(c3ccc(F)s3)Oc3cc(-c4cnc([C@@H]5CCCN5C(=O)[C@@H](NC(=O)OC)C(C)C)[nH]4)cc(F)c3-2)[nH]1)C1C[C@@H](C)O[C@@H](C)C1 (single isomer, unassigned) [Compound 349] | 0.39 | 1.4 | 0.266 | 
11 | COC(=O)NC(C(=O)N1CCC[C@H]1c1ncc(-c2ccc3c(c2)cc2n3C(c3ccc(C4CC4)s3)Oc3cc(-c4cnc([C@@H]5CCCN5C(=O)[C@@H](NC(=O)OC)C(C)C)[nH]4)cc(F)c3-2)[nH]1)C1CC(C)(C)OC(C)(C)C1 (single isomer, unassigned) [Compound 420] |  |  |  | IC50 (HCV replicon 2B; [2]): 6.03 nM; IC50 (HCV replicon 1A; [5]): 2.9 pM; IC50 (HCV replicon 1AY93H; [4]): 3.13 nM
12 | COC(=O)N[C@H](C(=O)N1CCC[C@H]1c1ncc(-c2ccc3c(c2)OC(c2ccc(C4CC4)s2)n2c-3c(C)c3cc(-c4cnc([C@@H]5CCCN5C(=O)[C@@H](NC(=O)OC)C(C)C)[nH]4)ccc32)[nH]1)C(C)C (single isomer, unassigned) [Compound 21] | 0.26 |  | 0.22 | IC50 (HCV replicon 1A; Hepatitis C virus, replicon 1A): 1.9 pM
13 | CCc1ccc(C2Oc3cc(-c4cnc([C@@H]5CCCN5C(=O)C(NC(=O)OC)C5CCOC(C)(C)C5)[nH]4)cc(F)c3-c3cc4cc(-c5cnc([C@@H]6CCCN6C(=O)[C@@H](NC(=O)OC)C(C)C)[nH]5)ccc4n32)s1 (single isomer, unassigned) [Compound 160] | 19.1 | 114 | 24.9 | 
